Assay results from US6599541B1, “Composition for treatment of drug resistant bacterial infections and a method of treating drug resistant bacterial infections” (priority 1999, dated 2003).
In brackets after ≈: the same amount, converted by molar mass. Where two headings read alike, the source gives them in different places.

How the values were obtained:
[1] = highest serum concentration reached after the maximum therapeutic dose in-vivo; cited from earlier work
Staphylococcus aureus [2] = assay: Agar Dilution Method of Sensitivity testing, NE alone and NE + antibiotic; type: cell-based; details: resistant S. aureus cultures, 48 hours
Description: Two kinds of investigations were carried-out using these bacterial isolates—using an Agar Dilution Method of Sensitivity testing.
i) To ascertain whether, NE can work as an antibacterial substance on its own. For this purpose, a stock-solution of NE was prepared and was sterilized as described in the preliminary experiments.
ii) This stock-solution was dispensed into the culture medium (Mueller Hinton Agar) so as to provide while; the medium was in liquid form. Four different concentrations of NE, viz.
iii) This medium was poured into petri dishes and allowed to solidify. Resistant cultures were inoculated on to these plates and after incubation for 48 hours, the growth patterns were assessed.
iv) The experiments were run in triplicate, for each concentration—as per standard practices of microbiological testing procedures.
i) The culture medium (Mueller Hinton Agar) was melted and distributed into a number of test tubes.
ii) The stock solution of NE was dispensed into these test tubes in four different concentrations viz.
iii) In the same medium, one of the antibiotics under investigation was also added so as to provide a variable concentration (at break-even point concentration) as described below:
iv) The culture medium containing NE extract+the antibiotic were poured into petri dishes and allowed to solidify.
v) The resistant bacterial strains were inoculated onto these plates, incubated for 48 hours and the growth patterns were studied on each plate.
These cultures were obtained various clinical samples, such as sputum, non-healing infected wounds, throat swabs etc.

Enterobacter spp. [3] = assay: Broth Macro Dilution Test, MIC and MBC; type: cell-based; details: antibiotic alone
Text: (§1) This was done by estimation of the Minimum Inhibitory Concentration (MIC) and Minimum Bactericidal Concentration (MBC) on the selected isolates by a Broth Macro Dilution Test.
(§2) While conducting these tests, the guidelines given by the National committee of Clinical Laboratory Standards 1995 protocols were employed. Cation Supplemented Mueller Hinton Broth was used as medium for all organisms excepting for β haemolytic streptococci for which, Todd Hewit's Broth was used as medium.
(§3) The following concentrations of antibiotics were tested to determine MIC and MBC.
(§4) A minimum inhibitory concentration is the lowest level of antibiotic needed to cause an inhibition to bacterial growth in culture medium whereas, the minimum bactericidal concentration is the lowest concentration of antibiotic to achieve a 100% killing of bacteria. Thus, these two values are the practical indices of intensity of bacterial resistance to a given antibiotic. On the other hand, a break-even point of any antibiotic indicates the attainable blood levels after an administration of full dose, in human/animal body. Thus, this point indicates the practical dosage of administering any given antibiotic effectively and beyond this point, even if an antibiotic is found to act effectively in experimental situation—such dose cannot be administered in a clinical situation.

Escherichia coli [4] = assay: Broth Macro Dilution Test, MIC and MBC; type: cell-based; details: resistant to Ciprofloxacin, antibiotic alone, read-out: minimum bactericidal concentration (MBC)
Text: as §1, §2, §3, §4

Klebsiella pneumoniae [5] = assay: Broth Macro Dilution Test, MIC and MBC; type: cell-based; details: Klebsiella pneumoniae, antibiotic alone
Text: as §1, §2, §3
(§5) Co-trimoxazole (Sulpharnethoxazole/Trimethoprim/μg/μg per ml)
as §4

Salmonella senftenberg [6] = assay: Broth Macro Dilution Test, MIC and MBC; type: cell-based; details: Salmonella enterica, Example 13: strain from burn wound swab culture, antibiotic alone
Text: as §1, §2, §3, §5, §4

Staphylococcus aureus [7] = assay: Broth Macro Dilution Test, MIC and MBC; type: cell-based; details: Example 12: strain from non-healing burn wound swab culture, antibiotic alone
Description: as §1
Cation Supplemented Mueller Hinton Broth was used as medium for all organisms excepting for β haemolytic streptococci for which, Todd Hewit's Broth was used as medium.
as §3, §4

Enterobacter spp. [8] = assay: Broth tube test of NE with antibiotic at break point, percentage of killing; type: cell-based; details: for bacterial growth in control tubes: NE and antibiotic added individually; for bactericidal effect: antibiotic 4 μg/ml (break point) combined with NE 125, 250, 500, 1000 μg/ml
Description: (§6) Since all the study isolates are resistant to the concerned antibiotics, each antibiotic is taken at its breakpoint concentration, (the highest serum concentration of that particular antibiotic reached after the maximum therapeutic dose in-vivo). The break points for various antibiotics are as follows:
(§7) Preparation of Neem Extract: Stock solution of neem extract (1 mg/ml) was prepared, filtered and autoclaved. It was used in 4 concentrations—1000 μg/ml; 500 μg/ml; 250 μg/ml; 125 μg/ml.
(§8) A set of four tubes with variable concentrations of the extract is prepared and to each of these tubes, the break point concentration of antibiotics is added. Now, these sets are inoculated with the study isolate in the same manner as per the broth dilution procedure. A set of six controls is inoculated with each isolate—in parallel with the main experiment.
(§9) 2. Only antibiotic solution
(§10) 3. Medium and antibiotic solution with inoculum
(§11) 5. Only Neem extract at 250 μg/ml
(§12) 6. Medium with Neem Extract and inoculum
(§13) Reading the test All the tests and control tubes are observed for visible turbidity of growth first. Since all the study isolates were earlier confirmed to be resistant to the antibiotics, the bacterial growth is expected at the breakpoint concentration of the antibiotic. Any reduction in the turbidity as compared to the control tube no. 3 is noted as a possible additive or synergistic effect of the neem extract with the antibiotic. In absence of such effect, the tubes may show growth matching with the control no. 4.
(§14) In case of a positive result, further sub-culturing was taken up, on solid media for colony counts with a calibrated loop. The colony counts could be noted by a semi quantitative method as 101 to 10^5 CFU/ml (Colony forming units). This is finally expressed as the percentage of killing as compared to the colony count obtained with control no. 4. Usually control tubes no. 3, 4 and 6 had similar colony counts.

Escherichia coli [9] = assay: as above; type: cell-based; details: for bacterial growth in control tubes: NE and antibiotic added individually; for bactericidal effect: antibiotic 4 μg/ml (break point) combined with NE 125, 250, 500, 1000 μg/ml
Description: as §6, §7, §8, §9, §10, §11, §12, §13, §14

Klebsiella pneumoniae [10] = assay: as above; type: cell-based; details: for bacterial growth in control tubes: NE and antibiotic added individually
Description: as §6, §7, §8, §9, §10, §11, §12, §13, §14

Salmonella senftenberg [11] = assay: as above; type: cell-based; details: Example 13 strain
Description: as §6, §7, §8, §9, §10, §11, §12, §13, §14

Staphylococcus aureus [12] = assay: as above; type: cell-based; details: Example 12 strain
Description: as §6, §7, §8, §9, §10, §11, §12, §13, §14

[13] = antibiotic at break-even point + NE 125 μg/mL
[14] = antibiotic at break-even point + NE 250 μg/mL
[15] = antibiotic at break-even point + NE 500 μg/mL
[16] = antibiotic at break-even point + NE 1000 μg/mL
[17] = Example 11: isolate from Endotracheal catheter tip culture

CC1(C)S[C@@H]2[C@H](NC(=O)[C@H](N)c3ccc(O)cc3)C(=O)N2[C@H]1C(=O)O [Amoxacillin]
break point [1]: 16 µg/mL

CC1=C(C(=O)O)N2C(=O)[C@@H](NC(=O)[C@H](N)c3ccccc3)[C@H]2SC1 [Cephalexin]
Growth Patterns after addition of NE: no. of cultures +++ (growth) (Staphylococcus aureus [2]; [13]): 81
Growth Patterns after addition of NE: no. of cultures −−− (inhibition of growth) (Staphylococcus aureus [2]; [13]): 21
Growth Patterns after addition of NE: no. of cultures +++ (growth) (Staphylococcus aureus [2]; [14]): 81
Growth Patterns after addition of NE: no. of cultures −−− (inhibition of growth) (Staphylococcus aureus [2]; [14]): 21
Growth Patterns after addition of NE: no. of cultures +++ (growth) (Staphylococcus aureus [2]; [15]): 81
Growth Patterns after addition of NE: no. of cultures −−− (inhibition of growth) (Staphylococcus aureus [2]; [15]): 21
Growth Patterns after addition of NE: no. of cultures +++ (growth) (Staphylococcus aureus [2]; [16]): 81
Growth Patterns after addition of NE: no. of cultures −−− (inhibition of growth) (Staphylococcus aureus [2]; [16]): 21
break point [1]: 18 µg/mL

O=C(O)c1cn(C2CC2)c2cc(N3CCNCC3)c(F)cc2c1=O [Ciprofloxacin]
MBC (Enterobacter spp. [3]; Enterobacter, Example 10: isolate from Endotracheal Catheter Tip culture, read-out: minimum bactericidal concentration (MBC)): > 128 µg/mL
MIC (Enterobacter spp. [3]; Enterobacter, Example 10: isolate from Endotracheal Catheter Tip culture, read-out: minimum inhibitory concentration (MIC)): 32 µg/mL (≈ 96.6 µM)
minimum bactericidal concentration (MBC) (Enterobacter spp. [3]; [17]): > 128 µg/mL
minimum inhibitory concentration (MIC) (Enterobacter spp. [3]; [17]): 32 µg/mL (≈ 96.6 µM)
MBC (Escherichia coli [4]; Example 1: isolate from wound infection): 64 µg/mL (≈ 193 µM)
MBC (Escherichia coli [4]; Example 2: isolate from endotracheal catheter tip culture): > 128 µg/mL
MBC (Klebsiella pneumoniae [5]; Example 3: strain from non-healing burn wound, read-out: MBC): > 64 µg/mL
MIC (Klebsiella pneumoniae [5]; Example 3: strain from non-healing burn wound, read-out: MIC): 16 µg/mL (≈ 48.3 µM)
MBC (Klebsiella pneumoniae [5]; Example 4: strain from wound swab culture, read-out: MBC): > 128 µg/mL
MIC (Klebsiella pneumoniae [5]; Example 4: strain from wound swab culture, read-out: MIC): 32 µg/mL (≈ 96.6 µM)
MBC (Klebsiella pneumoniae [5]; Example 5: isolate from Endotracheal Catheter Tip culture, read-out: minimum bactericidal concentration (MBC)): > 128 µg/mL
MIC (Klebsiella pneumoniae [5]; Example 5: isolate from Endotracheal Catheter Tip culture, read-out: minimum inhibitory concentration (MIC)): 32 µg/mL (≈ 96.6 µM)
MBC (Klebsiella pneumoniae [5]; Example 6: isolate from Endotracheal Catheter tip culture, read-out: minimum bactericidal concentration (MBC)): > 128 µg/mL
MIC (Klebsiella pneumoniae [5]; Example 6: isolate from Endotracheal Catheter tip culture, read-out: minimum inhibitory concentration (MIC)): 32 µg/mL (≈ 96.6 µM)
MBC (Klebsiella pneumoniae [5]; Example 7: isolate from endotracheal catheter tip culture, read-out: minimum bactericidal concentration (MBC)): > 128 µg/mL
MIC (Klebsiella pneumoniae [5]; Example 7: isolate from endotracheal catheter tip culture, read-out: minimum inhibitory concentration (MIC)): 32 µg/mL (≈ 96.6 µM)
MBC (Salmonella senftenberg [6]; read-out: MBC): > 128 µg/mL
MIC (Salmonella senftenberg [6]; read-out: MIC): 32 µg/mL (≈ 96.6 µM)
MBC (Staphylococcus aureus [7]): > 128 µg/mL
MIC (Staphylococcus aureus [7]): 32 µg/mL (≈ 96.6 µM)
bacterial growth in control tubes (Enterobacter spp. [8]; Example 10 isolate): unhindered
bactericidal effect (Enterobacter spp. [8]; Example 10 isolate): 80%
bacterial growth in control tubes (Enterobacter spp. [8]; Example 11 isolate): unhindered
bactericidal effect (Enterobacter spp. [8]; Example 11 isolate): 50%
bacterial growth in control tubes (Escherichia coli [9]; Example 1 isolate): unhindered
bactericidal effect (Escherichia coli [9]; Example 1 isolate): 100%
bacterial growth in control tubes (Escherichia coli [9]; Example 2 isolate): unhindered
bactericidal effect (Escherichia coli [9]; Example 2 isolate): 40%
killing (Klebsiella pneumoniae [10]; Example 3 strain, antibiotic at break point in combination with NE, uniform at 1000, 500, 250, 125 μg/ml): 99%
killing (Klebsiella pneumoniae [10]; Example 4 strain, antibiotic at break-even concentration with NE, uniform at all four NE concentrations): 90%
bacterial growth in control tubes (Klebsiella pneumoniae [10]; Example 5 isolate): unhindered
bactericidal effect (Klebsiella pneumoniae [10]; Example 5 isolate, antibiotic 4 μg/ml (break-even point) combined with NE 125, 250, 500, 1000 μg/ml): 90%
bacterial growth in control tubes (Klebsiella pneumoniae [10]; Example 6 isolate): unhindered
bactericidal effect (Klebsiella pneumoniae [10]; Example 6 isolate, antibiotic 4 μg/ml (break point) combined with NE 125, 250, 500, 1000 μg/ml): 80%
bacterial growth in control tubes (Klebsiella pneumoniae [10]; Example 7 isolate): unhindered
bactericidal effect (Klebsiella pneumoniae [10]; Example 7 isolate, antibiotic 4 μg/ml (break point) combined with NE 125, 250, 500, 1000 μg/ml): 50%
killing (Salmonella senftenberg [11]; antibiotic added to 1000 μg/ml NE): 50%
killing effect (Salmonella senftenberg [11]; antibiotic with 500 μg/ml NE): somewhat low
killing effect (Salmonella senftenberg [11]; antibiotic with NE at other concentrations (below 500 μg/ml)): not found
killing (Staphylococcus aureus [12]; antibiotic 4 μg/ml in combination with 250 μg/ml and 125 μg/ml NE): 80%
bactericidal effect (Staphylococcus aureus [12]; antibiotic 4 μg/ml with 1000 μg/ml, 500 μg/ml of NE): 20%
break point [1]: 4 µg/mL
